Laboratory results from publication PMC10534214 (Food Chemistry: X, 2023).

Biological target: T1, SaDHPS (Staphylococcus aureus, UniProt O05701, R204H/P216R)
T1 construct: gene folP
Conditions: read-out: SaDHPS + SIZ-2FITC / IC50 (ng/mL); tracer SIZ-2FITC; 4 mM DHPPP, 40 mM Mg2+ in reaction buffer, pH 8.0, 37 C, 2 min

SMILES: NS(=O)(=O)c1ccccc1 [BSN]
- IC50: 55.1 nM
